Patent US9453198B2, “Method of nociceptor differentiation of human embryonic stem cells and uses thereof” (MEMORIAL SLOAN KETTERING CANCER CENTER, priority 2010, dated 2016)

Columns and labels:
hPSCs = experiment: Intracellular FACS for Nestin and TUJ1 (efficiency of neuronal differentiation); format: cell-based, human; conditions: day 10, further inhibitors added day 2 of LSB treatment
Method: In the presence of LSB, SU/DAPT, DAPT, SU and CHIR, the majority of cells expressed Nestin. In particular, >95% of the LSB cell population were Nestin+.
Neural induction was performed as previously reported (Chambers, et al., Nat Biotechnol 27, (2009), herein incorporated by reference). Briefly, cells were collected then rendered to a single cell suspension using ACCUTASE (Sigma-Aldrich Corp. St. Louis, Mo., USA) and plated on gelatin for 30 minutes to remove Mouse Embryonic Fibroblast (MEF) Feeder Cells (MEFs) (MEFs adhere to gelatin coated plate). Non-adherent cells were collected and plated on matrigel treated dishes at a density of 20-40,000 cells/cm^2 in the presence of MEF-conditioned hESC media containing 10 ng/ml FGF-2 and 10 μM Y-27632 (rho-kinase inhibitor—Tocris Bioscience). Neural differentiation was initiated when the cells were confluent using Knockout Serum Replacement (KSR) media containing 820 ml of Knockout DMEM, 150 ml Knockout Serum Replacement, 1 mM L-glutamine, 100 μM MEM non-essential amino acids, and 0.1 mM β-mercaptoethanol. To inhibit SMAD signaling, 100 nM LDN-193189 and 10 μM SB431542 were added daily from day 0 (when SMAD signaling inhibitors LSB were added) through day 5. Cells were fed daily (i.e. 6 feedings with inhibitors, D0, D1, D2, D3, D4 and D5), and N2 media was added to the initial medium in increasing 25% increments every other day starting on day 4 (up to 100% N2 on day 10). […] After day 10, long-term culture media consisted of N2 media containing 10-100 ng/ml human-β-nerve growth factor (NGF), 10-100 ng/ml brain-derived neurotrophic factor (BDNF), and 10-100 ng/ml glial cell-derived neurotrophic factor (GDNF).
Cells were fixed with 4% paraformaldehyde for 20 minutes, washed with phosphate buffered saline (PBS), permeablized using 0.5% Triton X in PBS, and blocked using 1% BSA (bovine serum albumin) in phosphate buffered saline (PBS). For glutamate staining, 0.05% gluteraldehyde was added to the fixative. […]

[1] = tested on: transgenic SOX10::GFP BAC hESC line; experiment: SOX10::GFP reporter FACS (neural crest induction); format: cell-based, human; conditions: by day 12 of differentiation
Text: Thus, in order to determine if a neural crest intermediate cell fate marked by SOX10 (Aoki, et al., Dev Biol 259, 19-33, (2003); Lee, et al., Nat Biotechnol 25, 1468-1475, (2007), herein incorporated by reference) in human cells would be observed during differentiation using a transgenic SOX10::GFP bacterial artificial chromosome (BAC) hPSC line. This SOX10:: GFP (BAC) cell line was generated with enriched neural crest gene markers that co-expressed with a GFP gene using methods previously reported (Placantonakis, et al., Stem Cells 27:521-532, (2009), herein incorporated by reference). The SOX10:GFP cell line was a sub-clone of the H9 hESC line. Cells were dissociated and gene delivery was performed using reagents (solution V), protocol (B-16), and equipment from Amaxa. The DNA nucleofected (transfected into the nucleus) was a bacterial artificial chromosome (BAC) containing the SOX10 gene with an inserted GFP, obtained from Gene Expression Nervous System Atlas [GENSAT] (accession number: GENSAT1-BX1086). […]

rodent GSK3β homologs = conditions: cited from earlier work
human ES cells = experiment: Combinatorial small molecule screen, TUJ1/PAX6 immunofluorescence on day 10; format: cell-based; conditions: no matter when added during LSB treatment
Text: Specifically, in the context of dual SMAD inhibition (LSB), i.e. human ES cells were first treated with LSB (LDN-193189 and SB431542) for screening candidate compounds (i.e. small molecules) under approximately 400 conditions in order to find combinations of small molecules that might accelerate the acquisition of postmitotic neuron markers starting from human ES cells. Candidate compounds were chosen from molecules that targeted (altered) cell signaling pathways known to be important and frequently used in developmental studies in order to determine cell fates (for example, signaling pathways such as FGF, Notch, WNT, SHH (Sonic Hedgehog), etc.) for determining cells capable of CNS development. […]
On day 10 after addition of LSB, cells that survived during the screen were monitored for the loss of the human neuroectoderm marker PAX6 (Zhang, et al., Cell Stem Cell 7, 90-100, (2010), herein incorporated by reference) and initiation of neuronal differentiation by TUJ1 expression (Lee, et al., Cell Motil Cytoskeleton 17, 118-132, (1990), herein incorporated by reference). […] In general, results were determined by observing comparative amounts of TUJ1+/PAX6− staining of cells generated by each treatment such that the conditions and compounds showing the highest amounts of TUJ1+/PAX6− staining were chosen as successful for providing cells for further analysis. […]

hESC = experiment: Timing of 3i addition after LSB induction (survival, TUJ1); format: cell-based
Text: Cells were stained for identifying antibodies that bound to OCT4 (dark) and PAX6 (light) in addition to a nuclear 4′-6 Diamidino-2-phenylindole (DAPI) stain.
The stem cells treated with the combination of LSB and 3i were fixed on day 11 and examined for survival and expression of the neuronal marker TUJ1.

[2] = tested on: melanocyte precursors from hESC; experiment: Expansion and maturation of melanocytes; format: cell-based, human; conditions: component left out of formulation
Text: Melanocyte characteristics evaluated included induction of spindle morphology, pigmentation, and melanosome formation.
Specifically, the following time line of culturing conditions was developed that produced melanocytes of the present inventions: Feed on Day 0 and 1 with LDN and SB (using the same concentration ranges as LDN and SB in methods comprising 3i); Feed on Day 2 with LDN, SB, CHIR (using the same concentration ranges as LDN, SB, and CHIR in methods comprising 3i as described herein); In one embodiment, Feed on Day 3 with SB, CHIR (using the same concentration ranges as SB and CHIR in methods comprising 3i as described herein), in another embodiment Feed on Day 3 with LDN, SB, CHIR (using the same concentration ranges as LDN, SB, and CHIR in methods comprising 3i as described herein); Feed on Day 4 and 5 CHIR (using the same concentration ranges as CHIR in methods comprising 3i as described herein); Feed on Day 6 to 11 CHIR, BMP4, and EDN3 (using the same concentration ranges as CHIR in methods comprising 3i as described herein, see concentration ranges below for BMP4 and EDN3). On day 11 cells were passaged and fed with MEL media (including CHIR) up to 8 weeks. […]

For Cc1c[nH]c(-c2cnc(NCCNc3ccc(C#N)cn3)nc2-c2ccc(Cl)cc2Cl)n1 [CHIR99021, 6-(2-(4-(2,4-dichlorophenyl)-5-(4-methyl-1H-imidazol-2-yl)pyrimidin-2-ylamino)ethylamino)nicotinonitrile], the “Nestin positive cells (progenitors)” value (hPSCs) is listed as “majority”, the “SOX10::GFP+ cells” value [1] is listed as “greater than 70%” and the IC50 values (rodent GSK3β homologs) is listed as “nanomolar”.
With CC1=C2C[C@H]3[C@@H](CC=C4C[C@@H](O)CC[C@@]43C)[C@@H]2CC[C@]12O[C@@H]1C[C@H](C)CN[C@H]1[C@H]2C [Cyclopamine] the “effect on TUJ1/PAX6 staining” value (human ES cells) was “no effect”.
In the case of C[C@H](NC(=O)Cc1cc(F)cc(F)c1)C(=O)N[C@H](C(=O)OC(C)(C)C)c1ccccc1 [DAPT, N—[N-(3,5-Difluorophenacetyl)-L-alanyl]-S-phenylglycine t-butyl ester], the “Nestin positive cells (progenitors)” value (hPSCs) is reported as “majority”.
For c1ccc2c(-c3cnn4cc(-c5ccc(N6CCNCC6)cc5)cnc34)ccnc2c1 [LDN193189, 4-(6-(4-(piperazin-1-yl)phenyl)pyrazolo[1,5-a]pyrimidin-3-yl)quinoline], the “effect of inclusion or exclusion from days 5 to 10 on the differentiation” value (hESC) was “does not make a difference”.
In the case of CCCCC/C=C\C/C=C\CCCCCCCC(=O)O [Linoleic Acid], the “requirement in medium for growth of melanocytes” value [2] is reported as “required”.
With Cc1c[nH]c(/C=C2\C(=O)Nc3ccccc32)c1CCC(=O)O [SU5402, 2-[(1,2-Dihydro-2-oxo-3H-indol-3-ylidene)methyl]-4-methyl-1H-pyrrole-3-propanoic acid] the “Nestin positive cells (progenitors)” value (hPSCs) was “majority”.
